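Tested at 5 concentrations; 48 h exposure; 96-well plates; endpoints linearly interpolated, else capped at highest concentration. At the TGI there is no net growth.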
What was measured:
Assay in all cases: growth of human tumour cells (NCI), 48 h
[1] = tested on: 786-0 renal
[2] = tested on: A549 NSCLC
[3] = tested on: ACHN renal
[4] = tested on: CCRF-CEM leukemia
[5] = tested on: COLO 205 colon
[6] = tested on: DMS 114 small cell lung
[7] = tested on: DMS 273 small cell lung
[8] = tested on: EKVX NSCLC
[9] = tested on: HCC-2998 colon
[10] = tested on: HCT-116 colon
[11] = tested on: HCT-15 colon
[12] = tested on: HL-60(TB) leukemia
[13] = tested on: HOP-62 NSCLC
[14] = tested on: HT29 colon
[15] = tested on: IGROV1 ovarian
[16] = tested on: K-562 leukemia
[17] = tested on: KM12 colon
[18] = tested on: KM20L2 colon
[19] = tested on: LOX IMVI melanoma
[20] = tested on: LXFL 529 NSCLC
[21] = tested on: M14 melanoma
[22] = tested on: M19-MEL melanoma
[23] = tested on: MOLT-4 leukemia
[24] = tested on: NCI-H226 lung
[25] = tested on: NCI-H23 lung
[26] = tested on: NCI-H460 lung
[27] = tested on: OVCAR-3 ovarian
[28] = tested on: OVCAR-4 ovarian
[29] = tested on: OVCAR-5 ovarian
[30] = tested on: OVCAR-8 ovarian
[31] = tested on: RPMI-8226 leukemia
[32] = tested on: RXF 393 renal
[33] = tested on: SF-268 CNS
[34] = tested on: SF-295 CNS
[35] = tested on: SF-539 CNS
[36] = tested on: SK-MEL-28 melanoma
[37] = tested on: SK-MEL-5 melanoma
[38] = tested on: SK-OV-3 ovarian
[39] = tested on: SN12C renal
[40] = tested on: SNB-19 CNS
[41] = tested on: SNB-75 CNS
[42] = tested on: SR leukemia
[43] = tested on: SW-620 colon
[44] = tested on: TK-10 renal
[45] = tested on: U251 CNS
[46] = tested on: UACC-257 melanoma
[47] = tested on: UACC-62 melanoma
[48] = tested on: UO-31 renal
[49] = tested on: XF 498 CNS
[50] = tested on: A498 renal
[51] = tested on: CAKI-1 renal
[52] = tested on: DLD-1 colon
[53] = tested on: HOP-18 NSCLC
[54] = tested on: HOP-92 NSCLC
[55] = tested on: MALME-3M melanoma
[56] = tested on: NCI-H522 lung
[57] = tested on: SK-MEL-2 melanoma
[58] = tested on: SNB-78 CNS

SMILES: Cc1cn(C2CC3C(COCN3O)O2)c(=O)[nH]c1=O (configuration not stated)
- TGI [1]: > 100 µM
- TGI [2]: > 100 µM
- TGI [3]: > 100 µM
- TGI [4]: > 100 µM
- TGI [5]: > 100 µM
- TGI [6]: > 100 µM
- TGI [7]: > 100 µM
- TGI [8]: > 100 µM
- TGI [9]: > 100 µM
- TGI [10]: > 100 µM
- TGI [11]: > 100 µM
- TGI [12]: > 100 µM
- TGI [13]: > 100 µM
- TGI [14]: > 100 µM
- TGI [15]: > 100 µM
- TGI [16]: > 100 µM
- TGI [17]: > 100 µM
- TGI [18]: > 100 µM
- TGI [19]: > 100 µM
- TGI [20]: > 100 µM
- TGI [21]: > 100 µM
- TGI [22]: > 100 µM
- TGI [23]: > 100 µM
- TGI [24]: > 100 µM
- TGI [25]: > 100 µM
- TGI [26]: > 100 µM
- TGI [27]: > 100 µM
- TGI [28]: > 100 µM
- TGI [29]: > 100 µM
- TGI [30]: > 100 µM
- TGI [31]: > 100 µM
- TGI [32]: > 100 µM
- TGI [33]: > 100 µM
- TGI [34]: > 100 µM
- TGI [35]: > 100 µM
- TGI [36]: > 100 µM
- TGI [37]: > 100 µM
- TGI [38]: > 100 µM
- TGI [39]: > 100 µM
- TGI [40]: > 100 µM
- TGI [41]: > 100 µM
- TGI [42]: > 100 µM
- TGI [43]: > 100 µM
- TGI [44]: > 100 µM
- TGI [45]: > 100 µM
- TGI [46]: > 100 µM
- TGI [47]: > 100 µM
- TGI [48]: > 100 µM
- TGI [49]: > 100 µM

SMILES: O=C1C=CC(=O)C2=C1[C@@H](O)C1CC=CC3C(=O)O[C@@H]2C31 (some centres not stated)
- TGI [1]: > 55.2 µM
- TGI [50]: > 100 µM
- TGI [2]: > 100 µM
- TGI [3]: > 69.9 µM
- TGI [51]: 35.2 µM
- TGI [4]: 42.9 µM
- TGI [5]: 37 µM
- TGI [52]: 37.9 µM
- TGI [6]: 51.3 µM
- TGI [7]: 49.4 µM
- TGI [8]: > 100 µM
- TGI [9]: 34.6 µM
- TGI [10]: 39.7 µM
- TGI [11]: 44.1 µM
- TGI [12]: 40.4 µM
- TGI [53]: > 62 µM
- TGI [13]: > 100 µM
- TGI [54]: 45.4 µM
- TGI [14]: > 65.4 µM
- TGI [15]: 22.6 µM
- TGI [16]: > 61.5 µM
- TGI [17]: 41.2 µM
- TGI [18]: 60.9 µM
- TGI [19]: 50.1 µM
- TGI [20]: 29.3 µM
- TGI [21]: 36 µM
- TGI [22]: > 58.3 µM
- TGI [55]: 34.6 µM
- TGI [23]: 56.5 µM
- TGI [24]: > 75.1 µM
- TGI [25]: > 68 µM
- TGI [26]: > 100 µM
- TGI [56]: 34.8 µM
- TGI [27]: 36.8 µM
- TGI [28]: 17.7 µM
- TGI [29]: > 100 µM
- TGI [30]: > 71.3 µM
- TGI [31]: 57.7 µM
- TGI [32]: 33.9 µM
- TGI [33]: > 70.6 µM
- TGI [34]: > 100 µM
- TGI [35]: > 58.6 µM
- TGI [57]: 35.6 µM
- TGI [36]: > 62.3 µM
- TGI [37]: 41.2 µM
- TGI [38]: > 100 µM
- TGI [39]: 37.2 µM
- TGI [40]: > 100 µM
- TGI [41]: 50.7 µM
- TGI [58]: > 62.3 µM
- TGI [42]: > 100 µM
- TGI [43]: 57 µM
- TGI [44]: > 58.1 µM
- TGI [45]: > 100 µM
- TGI [46]: > 57.5 µM
- TGI [47]: 35.8 µM
- TGI [48]: > 71.5 µM
- TGI [49]: 42.1 µM
